Patent US20050095240A1, “NaCT as a target for lifespan expansion and weight reduction” (Medical College of Georgia Research, priority 2002, published 2005)
Like-named read-outs stand apart in the source and are kept apart here.

Assays:
ceNaCT = target: T1, ceNaCT (Caenorhabditis elegans, UniProt P32739, I91S/L182M); test: Uptake via ceNaCT expressed in HRPE cells
T1 sequence (P32739 1-551 I91S/L182M): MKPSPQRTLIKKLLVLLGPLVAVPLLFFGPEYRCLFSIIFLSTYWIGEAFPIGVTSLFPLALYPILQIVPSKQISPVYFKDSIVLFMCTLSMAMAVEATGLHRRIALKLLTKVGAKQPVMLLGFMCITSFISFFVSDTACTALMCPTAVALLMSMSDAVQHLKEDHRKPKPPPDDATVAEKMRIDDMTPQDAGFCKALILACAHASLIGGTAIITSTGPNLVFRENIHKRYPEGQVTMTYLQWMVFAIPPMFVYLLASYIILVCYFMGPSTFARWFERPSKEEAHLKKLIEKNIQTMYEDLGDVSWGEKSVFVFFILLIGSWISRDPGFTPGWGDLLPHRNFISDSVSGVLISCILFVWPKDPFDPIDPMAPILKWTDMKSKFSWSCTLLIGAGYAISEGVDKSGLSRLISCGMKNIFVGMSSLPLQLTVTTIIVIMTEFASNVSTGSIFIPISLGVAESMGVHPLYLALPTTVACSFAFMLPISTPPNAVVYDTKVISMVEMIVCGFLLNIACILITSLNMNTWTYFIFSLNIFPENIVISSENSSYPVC

drIndy = drIndy (Drosophila melanogaster, UniProt Q9VVT2)
drIndy, sequence (Q9VVT2 19-590): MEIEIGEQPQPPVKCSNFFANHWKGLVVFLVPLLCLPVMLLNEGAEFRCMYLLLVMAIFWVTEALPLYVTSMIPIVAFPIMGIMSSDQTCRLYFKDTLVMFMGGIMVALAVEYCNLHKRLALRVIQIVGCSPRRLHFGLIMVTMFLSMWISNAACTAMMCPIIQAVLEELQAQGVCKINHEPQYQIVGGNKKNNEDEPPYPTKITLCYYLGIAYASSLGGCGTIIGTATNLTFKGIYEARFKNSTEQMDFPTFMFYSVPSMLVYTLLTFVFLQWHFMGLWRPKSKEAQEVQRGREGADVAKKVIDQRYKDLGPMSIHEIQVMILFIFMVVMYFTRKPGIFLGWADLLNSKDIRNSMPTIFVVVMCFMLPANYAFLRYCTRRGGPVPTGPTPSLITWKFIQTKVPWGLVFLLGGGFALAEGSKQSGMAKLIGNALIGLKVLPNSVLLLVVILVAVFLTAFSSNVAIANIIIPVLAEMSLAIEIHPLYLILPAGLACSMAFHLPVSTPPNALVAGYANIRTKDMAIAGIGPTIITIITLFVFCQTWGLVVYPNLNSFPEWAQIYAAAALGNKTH

rat NaCT [1] = target: T2, rat NaCT (Rattus norvegicus, UniProt Q8CJ44); test: Uptake via rat NaCT expressed in HRPE cells; type: cell-based
T2 sequence (Q8CJ44 1-572): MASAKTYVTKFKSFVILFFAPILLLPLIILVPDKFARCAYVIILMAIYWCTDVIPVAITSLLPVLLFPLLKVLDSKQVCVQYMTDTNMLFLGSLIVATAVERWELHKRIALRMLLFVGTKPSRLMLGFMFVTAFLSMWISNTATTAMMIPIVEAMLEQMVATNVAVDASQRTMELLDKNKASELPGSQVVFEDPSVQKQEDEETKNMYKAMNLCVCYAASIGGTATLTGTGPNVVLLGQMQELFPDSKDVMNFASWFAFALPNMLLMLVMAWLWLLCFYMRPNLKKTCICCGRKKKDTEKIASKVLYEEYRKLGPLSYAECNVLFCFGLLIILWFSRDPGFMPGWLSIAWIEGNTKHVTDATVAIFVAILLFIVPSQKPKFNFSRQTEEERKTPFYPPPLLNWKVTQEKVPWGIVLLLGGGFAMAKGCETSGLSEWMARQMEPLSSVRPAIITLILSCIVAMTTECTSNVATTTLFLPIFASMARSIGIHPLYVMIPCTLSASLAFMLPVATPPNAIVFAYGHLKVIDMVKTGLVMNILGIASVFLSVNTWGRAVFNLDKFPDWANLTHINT

zebrafish NaCT = zebrafish NaCT (Danio rerio, UniProt A0A2R8QQN0, K78Q); test: Citrate uptake via zebrafish NaCT expressed in HRPE cells; type: cell-based
zebrafish NaCT, sequence (A0A2R8QQN0 2-582 K78Q): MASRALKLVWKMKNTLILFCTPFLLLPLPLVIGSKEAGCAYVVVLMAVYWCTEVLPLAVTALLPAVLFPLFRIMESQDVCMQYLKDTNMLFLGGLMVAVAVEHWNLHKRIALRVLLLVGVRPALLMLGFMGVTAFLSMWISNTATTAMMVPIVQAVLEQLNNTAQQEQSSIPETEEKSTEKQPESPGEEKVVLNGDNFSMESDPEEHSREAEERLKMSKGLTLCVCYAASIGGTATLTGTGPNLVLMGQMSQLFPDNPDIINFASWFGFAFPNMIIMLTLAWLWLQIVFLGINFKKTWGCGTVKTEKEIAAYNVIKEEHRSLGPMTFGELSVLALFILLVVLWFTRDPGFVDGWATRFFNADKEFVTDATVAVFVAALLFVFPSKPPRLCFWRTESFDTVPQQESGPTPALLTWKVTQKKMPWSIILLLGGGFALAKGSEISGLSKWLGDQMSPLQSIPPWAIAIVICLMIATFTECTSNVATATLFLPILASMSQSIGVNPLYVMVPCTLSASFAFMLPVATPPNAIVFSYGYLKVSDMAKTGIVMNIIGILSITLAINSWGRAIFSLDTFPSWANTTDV

mouse NaCT = target: T3, mouse NaCT (Mus musculus, UniProt Q67BT3); test: Transport via mouse NaCT expressed in HRPE cells; type: cell-based
T3 sequence (Q67BT3 1-572): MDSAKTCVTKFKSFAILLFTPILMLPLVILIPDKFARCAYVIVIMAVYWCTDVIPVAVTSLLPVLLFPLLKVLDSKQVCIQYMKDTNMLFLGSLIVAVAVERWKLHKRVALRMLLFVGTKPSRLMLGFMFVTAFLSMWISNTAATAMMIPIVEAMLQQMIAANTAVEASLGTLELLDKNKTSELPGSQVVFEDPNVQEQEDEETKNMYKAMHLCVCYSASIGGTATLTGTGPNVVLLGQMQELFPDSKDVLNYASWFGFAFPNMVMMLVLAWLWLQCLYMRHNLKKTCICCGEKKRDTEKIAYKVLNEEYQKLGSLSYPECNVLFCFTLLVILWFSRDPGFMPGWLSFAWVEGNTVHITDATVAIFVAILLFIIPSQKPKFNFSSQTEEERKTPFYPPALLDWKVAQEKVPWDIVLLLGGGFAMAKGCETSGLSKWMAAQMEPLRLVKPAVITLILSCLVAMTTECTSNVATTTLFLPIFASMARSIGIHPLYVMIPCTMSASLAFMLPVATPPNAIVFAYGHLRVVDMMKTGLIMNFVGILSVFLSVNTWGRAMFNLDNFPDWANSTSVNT

NaCT in HepG2 cells = target: T4, NaCT in HepG2 cells (Homo sapiens, UniProt Q86YT5); test: Citrate uptake in HepG2 cells (constitutively expressed NaCT); type: cell-based; details: Li+ 2 mM, valproate 0.6 μM, carbamazepine 50 μM
T4 construct: the effect of Li^+ on constitutively expressed NaCT in human liver cells was studied; host or cells: HepG2
T4 sequence (Q86YT5 whole entry): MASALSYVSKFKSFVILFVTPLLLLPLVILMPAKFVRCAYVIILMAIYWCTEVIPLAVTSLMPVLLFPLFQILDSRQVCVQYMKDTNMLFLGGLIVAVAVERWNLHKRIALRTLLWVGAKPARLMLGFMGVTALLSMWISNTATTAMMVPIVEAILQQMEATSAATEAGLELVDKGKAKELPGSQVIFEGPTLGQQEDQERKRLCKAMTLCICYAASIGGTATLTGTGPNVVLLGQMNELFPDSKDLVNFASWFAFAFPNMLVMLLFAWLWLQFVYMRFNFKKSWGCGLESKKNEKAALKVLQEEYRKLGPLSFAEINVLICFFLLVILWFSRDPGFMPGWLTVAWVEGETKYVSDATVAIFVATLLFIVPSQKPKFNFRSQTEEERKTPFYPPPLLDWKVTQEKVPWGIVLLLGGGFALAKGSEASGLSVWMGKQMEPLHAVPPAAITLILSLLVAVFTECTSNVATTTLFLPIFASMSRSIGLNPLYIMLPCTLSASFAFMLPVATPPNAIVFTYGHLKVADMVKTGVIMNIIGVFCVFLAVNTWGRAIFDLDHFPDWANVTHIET
Description: Uptake measurement in human liver cell lines. The human liver cell lines (HepG2 and Huh-7) were cultured to confluency in 24-well culture plates using appropriate culture medium. The HepG2 cell line was obtained from American Type Culture Collection (Manasses, Va.). The Huh-7 cell line (Bode et al., (2002) Am. J. Physiol. 283, G1062-G1073) was provided by Dr. Barrie P. Bode (St. Louis University, St. Louis, Mo.). Uptake measurements in monolayer cultures of these cells were measured as described above for the heterologously expressed NaCTs.

[2] = human, in vivo; cited from earlier work
human NaCT = human NaCT (Homo sapiens, UniProt Q86YT5); test: Uptake via human NaCT expressed in HRPE cells; type: cell-based
human NaCT, sequence (Q86YT5 whole entry): as above

rat NaCT [3] = target: T2, rat NaCT; test: Rat NaCT in X. laevis oocytes, voltage clamp and charge-to-substrate ratio; type: cell-based
[4] = Li+ 2 mM, valproate 0.6 μM, carbamazepine 50 μM

With `O=C(O)CCC(=O)C(=O)O` [2-Oxoglutarate] the “Competition with [^14C]citrate for ceNaCT-mediated uptake” value (“Competition with [^14C]citrate” for short) (ceNaCT) was “inhibited markedly”, the “% Control of cDNA-specific [^3H]succinate uptake” value (“% Control of cDNA-specific” for short) (drIndy) was 5% and the “cDNA-specific [^3H] succinate uptake” value (drIndy; pH 7.5) was 3.0 ± 1.0 fmol/106 cells per min.

With `NC(=O)N1c2ccccc2C=Cc2ccccc21` [Carbamazepine, carbamazepine] the “Citrate uptake, rNaCT” value (rat NaCT [1]; [4]) was 133.5 ± 0.7 pmol/10^6 cells/min, the “Citrate uptake, rNaCT, percent of corresponding control” value (rat NaCT [1]; [4]) was 90% and the “Citrate uptake, zfNaCT” value (zebrafish NaCT) was 441.0 ± 2.7 (91) pmol/10^6 cells/min. The “Citrate uptake, zfNaCT, percent of corresponding control” value (zebrafish NaCT; hrpe cells, 30 min) was 441.0 ± 2.7 (91) percent, the “Citrate uptake, mNaCT” value (mouse NaCT; [4]) was 43.7 ± 2.0 pmol/10^6 cells/min and the “Citrate uptake, mNaCT, percent of corresponding control” value (mouse NaCT; [4]) was 103%. The “Citrate uptake, HepG2 cells” value (NaCT in HepG2 cells) was 10.0 ± 0.2 pmol/min/mg protein, the “Citrate uptake, HepG2 cells, percent of corresponding control” value (NaCT in HepG2 cells) was 106% and the “Citrate uptake, ceNaCT” value (ceNaCT; [4]) was 45.1 ± 1.5 pmol/10^6 cells/min. The “Citrate uptake, ceNaCT, percent of corresponding control” value (ceNaCT; [4]) was 104%, the “Therapeutic plasma levels in humans” value [2] was 20 to 50 µM and the “Citrate uptake, hNaCT” value (human NaCT; [4]) was 54.1 ± 2.6 pmol/10^6 cells/min. The “Citrate uptake, hNaCT, percent of corresponding control” value (human NaCT; [4]) was 105%.

With `O=C(O)/C=C/C(=O)O` [Fumarate] the “[^14C]Citrate uptake (cDNA-specific)” value (rat NaCT [1]) was 17.7 ± 1.4 Pmol/10^6 cells/min, the “[^14C]Citrate uptake, %” value (rat NaCT [1]) was 16% and the “[^3H]-Succinate transport (NaCT-specific)” value (mouse NaCT) was 0.007 ± 0.002 pmol/10^6 cells/min. For the same compound, the “[^3H]-Succinate transport, %” value (mouse NaCT) was 5%, the “[^14C]-Citrate transport (NaCT-specific)” value (mouse NaCT) was 1.6 ± 0.4 pmol/10^6 cells/min and the “[^14C]-Citrate transport, %” value (mouse NaCT) was 4%. For the same compound, the “Competition with [^14C]citrate” value (ceNaCT) was “inhibited markedly”, the “[^14C]-Citrate Uptake (cDNA-specific)” value (human NaCT) was 43.7 ± 5.0 pmol/10^6 cells/min and the “[^14C]-Citrate Uptake, %” value (human NaCT) was 92%. The IC50 (human NaCT; read-out: IC50 for inhibition of human NaCT-mediated [^14C]-citrate uptake) was 12.6 ± 5 mM, the “% Control of cDNA-specific” value (drIndy) was 6% and the “cDNA-specific [^3H] succinate uptake” value (drIndy; pH 7.5) was 4.8 ± 0.3 fmol/106 cells per min.

In the case of `CC(O)C(=O)O` (stereo not shown) [Lactate, lactate], the “[^14C]Citrate uptake (cDNA-specific)” value (rat NaCT [1]) is reported as 89.6 ± 2.0 Pmol/10^6 cells/min, the “[^14C]Citrate uptake, %” value (rat NaCT [1]) is reported as 83% and the “[^3H]-Succinate transport (NaCT-specific)” value (mouse NaCT) is reported as 0.162 ± 0.008 pmol/10^6 cells/min. For the same compound, the “[^3H]-Succinate transport, %” value (mouse NaCT) was 111%, the “[^14C]-Citrate transport (NaCT-specific)” value (mouse NaCT) was 29.8 ± 3.4 pmol/10^6 cells/min and the “[^14C]-Citrate transport, %” value (mouse NaCT) was 78%. For the same compound, the “Competition with [^14C]citrate” value (ceNaCT) was “only a minimal inhibition”, the “Substrate-induced currents” value (rat NaCT [3]) was “no or little currents” and the “[^14C]-Citrate Uptake (cDNA-specific)” value (human NaCT) was 61.2 ± 6.0 pmol/10^6 cells/min. For the same compound, the “[^14C]-Citrate Uptake, %” value (human NaCT) was 128%, the “% Control of cDNA-specific” value (drIndy) was 77% and the “cDNA-specific [^3H] succinate uptake” value (drIndy; pH 7.5) was 111.2 ± 3.2 fmol/106 cells per min.

For `O=C(O)CC(O)C(=O)O` (stereo not shown) [Malate, malate], the “[^14C]Citrate uptake (cDNA-specific)” value (rat NaCT [1]; [14C]citrate 14 μM, unlabeled compound 2.5 mM) was 7.8 ± 0.1 Pmol/10^6 cells/min, the “[^14C]Citrate uptake, %” value (rat NaCT [1]; [14C]citrate 14 μM, unlabeled compound 2.5 mM, none = 100) was 7% and the “[^3H]-Succinate transport (NaCT-specific)” value (mouse NaCT; [3H]-succinate 0.1 μM, substrate analog 2 mM) was 0.004 ± 0.001 pmol/10^6 cells/min. For the same compound, the “[^3H]-Succinate transport, %” value (mouse NaCT; [3H]-succinate 0.1 μM, substrate analog 2 mM, control = 100) was 3%, the “[^14C]-Citrate transport (NaCT-specific)” value (mouse NaCT; [14C]-citrate 10 μM, substrate analog 2 mM) was 0.2 ± 0.1 pmol/10^6 cells/min and the “[^14C]-Citrate transport, %” value (mouse NaCT; [14C]-citrate 10 μM, substrate analog 2 mM, control = 100) was 1%. The “Competition with [^14C]citrate” value (ceNaCT; competitor 2.5 mM, [14C]citrate 15 μM) was “inhibited markedly”, the IC50 (human NaCT) was 3.12 ± 1.34 mM and the “[^14C]-Citrate Uptake (cDNA-specific)” value (human NaCT; [14C]-citrate 20 μM, unlabeled compound 2.5 mM) was 29.5 ± 1.9 pmol/10^6 cells/min. For the same compound, the “[^14C]-Citrate Uptake, %” value (human NaCT; [14C]-citrate 20 μM, unlabeled compound 2.5 mM, none = 100) was 62%, the “% Control of cDNA-specific” value (drIndy; [3H]succinate 40 nM, inhibitor 2.5 mM) was 8% and the “cDNA-specific [^3H] succinate uptake” value (drIndy; [3H]succinate 40 nM, inhibitor 2.5 mM, NaCl buffer pH 7.5) was 6.8 ± 2.7 fmol/106 cells per min.
